Article PMC10958117, “G-site residue S67 is involved in the fungicide-degrading activity of a tau class glutathione S-transferase from Carica papaya” (The Journal of Biological Chemistry, 2024)

How the values were obtained:
[1] = target: T1, tau class glutathione S-transferase from Carica papaya (TCpGST) (Carica papaya, UniProt O49821); test: HPLC degradation assay ([…] after […] h); S67A inactive; format: biochemical; parameters: gene PGST1; full-length ORF (657 bp), C-terminal His6, pET-30a, E. coli BL21(DE3), Ni-NTA purified; conditions: 120 min
T1 sequence (O49821 1-218): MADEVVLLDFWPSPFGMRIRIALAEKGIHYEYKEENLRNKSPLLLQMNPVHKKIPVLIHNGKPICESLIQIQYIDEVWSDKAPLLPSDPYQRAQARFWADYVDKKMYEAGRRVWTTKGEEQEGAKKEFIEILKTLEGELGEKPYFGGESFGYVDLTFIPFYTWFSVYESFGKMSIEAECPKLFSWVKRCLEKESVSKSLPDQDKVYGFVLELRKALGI

[2] = target: T1, tau class glutathione S-transferase from Carica papaya (TCpGST); test: as above; format: biochemical; parameters: gene PGST1; conditions: 120 min

| % [2] [%] | SMILES | % [1] [%] |
| --- | --- | --- |
|  | N#Cc1c(Cl)c(Cl)c(Cl)c(C#N)c1Cl [compound 11, chlorothalonil] | 26 |
| 69 | c1ccc2[nH]c(-c3cscn3)nc2c1 [compound 16, thiabendazole] |  |
